Source: US20110262456A1, “METHOD OF TREATING ISCHEMIA REPERFUSION INJURY” (priority 2008, published 2011)
Like-named read-outs stand apart in the source and are kept apart here.

Legend:
[1] = system: rabbit heart; details: application after the onset of cardiac ischemia, rabbit infarct model; cited from earlier work
[2] = system: HL-60 human promyelocytic leukemia cells; details: cited from earlier work
[3] = system: rabbit hearts; assay: Rabbit heart regional ischemia/reperfusion, infarct size as percentage of risk zone; type: in vivo, New Zealand White rabbits; details: ischemia alone, FIG. 9
Experimental: New Zealand White rabbits of either sex weighing nearly 3 Kg were anesthetized with intravenous sodium pentobarbital (30 mg/kg). Throughout the experiment, additional anesthesia was administered as needed (5-15 mg pentobarbital/15 min) A heating pad maintained rectal temperature between 38.5 and 39.5-C. Animals were intubated through a tracheotomy and ventilated with 100% O2 with the aid of a mechanical ventilator. To administer drugs, a PE 50 catheter filled with heparinized saline was placed in an ear vein. After a left thoractomy, a prominent branch of the left coronary artery was surrounded with a suture (2-0 silk) to form a snare. The rabbits were allowed to stabilize for 15 min after surgery before the protocols were begun. […] The coronary artery was re-occluded, and […] diameter green fluorescent microspheres (Duke Scientific Corp., Palo Alto, Calif.) were infused into the perfusate to demarcate the ischemic zone as the area of tissue without fluorescence (region at risk). […] The areas of infarct and risk zone were determined by planimetry of each slice and volumes were calculated by multiplying each area by its slice thickness and summing them for each heart. Infarct size is expressed as a percentage of the risk zone. […] All data are expressed as mean TS.E.M. One-way analysis of variance (ANOVA) combined with Tukey's posthoc test was performed on baseline hemodynamic and infarct data. […]

Compound: N#Cc1c(N)nc(SCC(N)=O)c(C#N)c1-c1ccc(OCC2CC2)cc1 [BAY-60-6583]
- reduction of the infarct size [1]: effective

Compound: CNC(=O)[C@H]1O[C@@H](n2cnc3c(NCc4cccc(I)c4)nc(Cl)nc32)[C@H](O)[C@@H]1O [C1-IB-MECA]
- apoptosis in HL-60 cells, low concentrations ([2]; 10 nM or 1 μM): protected against
- apoptosis in HL-60 cells ([2]; 10-30 μM): induced apoptosis

Compound: CNC(=O)[C@H]1O[C@@H](n2cnc3c(NCc4cccc(I)c4)ncnc32)[C@H](O)[C@@H]1O [IB-MECA]
- apoptosis in HL-60 cells ([2]; 30 and 60 μM): induced apoptosis

Compound: CCNC(=O)[C@H]1O[C@@H](n2cnc3c(N)ncnc32)[C@H](O)[C@@H]1O [NECA, 5′-N-ethylcarboxamidoadenosine]
- protection (inhibition of infarct size) [3]: 50%
